Test results reported in patent US20010047099A1, “4-aminopicolinates and their use as herbicides” (priority 2000, published 2001).

Experiments:
[1] = test system: chickweed (Stellaria media); assay: Postemergence herbicidal activity; format: in vivo; conditions: Stellaria media, post-emergence, 336 h, Table 1, visual, after 2 weeks, read-out: Post-emergent % Control STEME; for pest or weed control at 125 ppm: rate 125 ppm; for pest or weed control at 250 ppm: rate 250 ppm
Experimental: (§1) Seeds of the desired test plant species were planted in Grace-Sierra MetroMix® 306 planting mixture, which typically has a pH of 6.0 to 6.8 and an organic matter content of about 30 percent, in plastic pots with a surface area of 64 square centimeters. When required to ensure good germination and healthy plants, a fungicide treatment and/or other chemical or physical treatment was applied. The plants were grown for 7-21 days in a greenhouse with an approximate 15 hr photoperiod which was maintained at about 23-29° C. during the day and 22-28° C. during the night. Nutrients and water were added on a regular basis and supplemental lighting was provided with overhead metal halide 1000-Watt lamps as necessary. The plants were employed for testing when they reached the first or second true leaf stage.
(§2) A weighed amount, determined by the highest rate to be tested, of each test compound was placed in a 20 mL glass vial and was dissolved in 4 mL of a 97:3 v/v (volume/volume) mixture of acetone and dimethyl sulfoxide (DMSO) to obtain concentrated stock solutions. […] The concentrated stock solutions obtained were diluted with an aqueous mixture containing acetone, water, isopropyl alcohol, DMSO, Atplus 411F crop oil concentrate, and Triton X-155 surfactant in a 48.5:39:10:1.5:1.0:0.02 v/v ratio to obtain spray solutions of known concentration. The solutions containing the highest concentration to be tested were prepared by diluting 2 mL aliquots of the stock solution with 13 mL of the mixture and lower concentrations were prepared by serial dilution of the stock solution. Approximately 1.5 mL aliquots of each solution of known concentration were sprayed evenly onto each of the test plant pots using a DeVilbiss atomizer driven by compressed air pressure of 2 to 4 psi ([…]) to obtain thorough coverage of each plant. Control plants were sprayed in the same manner with the aqueous mixture. In this test an application rate of 1 ppm results in the application of approximately 1 g/Ha.
(§3) The treated plants and control plants were placed in a greenhouse as described above and watered by sub-irrigation to prevent wash-off of the test compounds. After 2 weeks the condition of the test plants as compared with that of the untreated plants was determined visually and scored on a scale of 0 to 100 percent where 0 corresponds to no injury and 100 corresponds to complete kill.

[2] = test system: cocklebur (Xanthium strumarium); assay: Postemergence herbicidal activity; format: in vivo; conditions: Xanthium strumarium, post-emergence, 336 h, Table 1, visual, after 2 weeks, read-out: Post-emergent % Control XANST; for pest or weed control at 125 ppm: rate 125 ppm; for pest or weed control at 250 ppm: rate 250 ppm
Experimental: as §1, §2, §3

[3] = test system: wild buckwheat (Polygonum convolvulus); assay: Postemergence herbicidal activity; format: in vivo; conditions: Fallopia convolvulus, post-emergence, 336 h, Table 1, visual, after 2 weeks, read-out: Post-emergent % Control POLCO; for pest or weed control at 125 ppm: rate 125 ppm; for pest or weed control at 250 ppm: rate 250 ppm
Experimental: as §1, §2, §3

[4] = test system: morningglory (Ipomoea hederacea); assay: Preemergence herbicidal activity; format: in vivo; conditions: Ipomoea, 504 h, Table 6 (headed Post-emergent; text: preemergence), after 3 weeks, read-out: % Control IPOHE; for pest or weed control at 280 ppm: rate 280 ppm; for pest or weed control at 560 ppm: rate 560 ppm; for pest or weed control at 70 ppm: rate 70 ppm
Source text: (§4) Seeds of the desired test plant species were planted in a soil matrix prepared by mixing a loam soil (43 percent silt, 19 percent clay, and 38 percent sand, with a pH of about 8.1 and an organic matter content of bout 1.5 percent) and sand in a 70 to 30 ratio. The soil matrix was contained in plastic pots with a surface area of 113 square centimeters. When required to ensure good germination and healthy plants. a fungicide treatment and/or other chemical or physical treatment was applied.
(§5) A weighed amount, determined by the highest rate to be tested, of each test compound was placed in a 20 mL glass vial and was dissolved in 4 mL of a 97:3 v/v (volume/volume) mixture of acetone and dimethyl sulfoxide to obtain concentrated stock solutions. […] The stock solutions obtained were diluted with a 99.9:0.1 mixture of water and Tween® […] surfactant to obtain application solutions of known concentration. The solutions containing the highest concentration to be tested were prepared by diluting 2 mL aliquots of the stock solution with 15 mL of the mixture and lower concentrations were prepared by serial dilution of the stock solution. A 2.5 mL aliquot of each solution of known concentration was sprayed evenly onto the soil surface (113 sq. cm) of each seeded pot using a Cornwall 5.0 mL glass syringe fitted with a TeeJet TN-3 hollow cone nozzle to obtain thorough coverage of the soil in each pot. Control pots were sprayed in the same manner with the aqueous mixture.
(§6) The treated pots and control pots were placed in a greenhouse maintained with an approximate 15 hr photoperiod and temperatures of about 23-29° C. during the day and 22-28° C. during the night. Nutrients and water were added on a regular basis and supplemental lighting was provided with overhead metal halide 1000-Watt lamps as necessary. The water was added by top-irrigation. After 3 weeks the condition of the test plants that germinated and grew as compared with that of the untreated plants that germinated and grew was determined visually and scored on a scale of 0 to 100 percent where 0 corresponds to no injury and 100 corresponds to complete kill or no germination.

[5] = test system: pigweed (Amaranthus retroflexus); assay: Preemergence herbicidal activity; format: in vivo; conditions: Amaranthus retroflexus, 504 h, Table 6 (headed Post-emergent; text: preemergence), after 3 weeks, read-out: % Control AMARE; for pest or weed control at 280 ppm: rate 280 ppm; for pest or weed control at 560 ppm: rate 560 ppm; for pest or weed control at 70 ppm: rate 70 ppm
Source text: as §4, §5, §6

[6] = test system: velvetleaf (Abutilon theophrasti); assay: Preemergence herbicidal activity; format: in vivo; conditions: Abutilon theophrasti, 504 h, Table 6 (headed Post-emergent; text: preemergence), after 3 weeks, read-out: % Control ABUTH; for pest or weed control at 280 ppm: rate 280 ppm; for pest or weed control at 560 ppm: rate 560 ppm; for pest or weed control at 70 ppm: rate 70 ppm
Source text: as §4, §5, §6

[7] = test system: Canada thistle (Cirsium arvense); assay: Range & Pasture Crop Testing (postemergence track sprayer); format: in vivo; conditions: Table 10; clover pasture; postemergence
Experimental: (§7) By applying the well-accepted probit analysis as described by J. Berkson in Journal of the […], 48, 565 (1953) and by D. Finney in “Probit Analysis” Cambridge University Press (1952), the above data can be used to calculate GR50 and GR80 values, which are defined as growth reduction factors that correspond to the effective dose of herbicide required to kill or control 50 percent or 80 percent, respectively, of a target plant.
(§8) Rates are calculated based upon 5 doses being applied. The high rate (X), followed by serial dilutions of 1/2×, 1/4×, 1/8× and 1/16×. Compound requirements are based upon the 187 L/ha carrier volume, specifications of the delivery system (Mandel track sprayer) and generating 24 mL of technical spray material to allow for the dilutions and overage in the sprayer. [formula]
(§9) All technical materials were formulated in 97:3 (acetone:DMSO) with 0.25% X-77. The total volume of solvent is maintained at less than 7%. An overhead Mandel track sprayer calibrated to deliver 187 L/ha was used for all treatment applications (postemergence). Picloram was included as a comparison treatment.
(§10) Solutions were applied with a mechanized track-sprayer at the following settings:
(§11) Spray height: 17 inches above top of plants
(§12) This provides an application volume of 187 L/ha.
(§13) Percent weed control (burn down) was evaluated 3 weeks after treatment. Visual control on a 0-100 linear scale was used, with 0 representing no control and 100 representing total control. Burn down ratings were taken for annual and perennial weed species.

[8] = test system: White Clover (Trifolium repens); assay: as above; format: in vivo; conditions: Table 10
Experimental: as §7, §8, §9, §10, §11, §12, §13

[9] = test system: field bindweed (Convolvulus arvensis); assay: as above; format: in vivo; conditions: Table 10; clover pasture; postemergence
Experimental: as §7, §8, §9, §10, §11, §12, §13

Structure (SMILES)	melting point [°C]	pest or weed control at 125 ppm [1] [%]	pest or weed control at 125 ppm [2] [%]	pest or weed control at 125 ppm [3] [%]	pest or weed control at 280 ppm [4] [%]	pest or weed control at 280 ppm [5] [%]	pest or weed control at 280 ppm [6] [%]	GR80 CIRAR [7] [g/ha]	GR20 TRFRE [8] [g/ha]	GR80 CONAR [9] [g/ha]	pest or weed control at 250 ppm [1] [%]	pest or weed control at 250 ppm [2] [%]	pest or weed control at 250 ppm [3] [%]	pest or weed control at 560 ppm [4] [%]	pest or weed control at 560 ppm [5] [%]	pest or weed control at 560 ppm [6] [%]	pest or weed control at 70 ppm [4] [%]	pest or weed control at 70 ppm [5] [%]	pest or weed control at 70 ppm [6] [%]
CCCOC(=O)c1nc(Cl)cc(N)c1Cl [Compound 5, n-propyl 4-amino-3,6-dichloropyridine-2-carboxylate]	94 to 95	100	100	100	100	100	100	<17.5	<17.5	140.1	–	–	–	–	–	–	–	–	–
Nc1cc(Oc2ccccc2)nc(C(=O)O)c1Cl [Compound 48, 4-amino-3-chloro-6-phenoxypyridine-2-carboxylic acid]	178	–	–	–	100	30	100	–	–	–	60	100	100	–	–	–	–	–	–
Cc1ccc(Oc2cc(N)c(Cl)c(C(=O)O)n2)cc1 [Compound 50, 4-amino-3-chloro-6-(4-methylphenoxy)-pyridine-2-carboxylic acid]	173	–	–	–	–	–	–	–	–	–	0	60	70	–	–	–	0	0	0
CCCCCCOC(=O)c1nc(Cl)cc(N)c1Cl [Compound 9, n-hexyl 4-amino-3,6-dichloropyridine-2-carboxylate]	65 to 66	–	–	–	100	98	100	20.7	20.7	66	100	100	100	–	–	–	–	–	–
COc1ccc(Oc2cc(N)c(Cl)c(C(=O)O)n2)cc1 [Compound 49, 4-amino-3-chloro-6-(4-methoxyphenoxy)-pyridine-2-carboxylic acid]	174	–	–	–	–	–	–	–	–	–	0	60	70	–	–	–	0	0	0
COc1c(Cl)nc(C(=O)O)c(Cl)c1N [Compound 22, 4-Amino-3,6-dichloro-5-methoxypyridine-2-carboxylic acid]	154 to 156	–	–	–	–	–	–	–	–	–	90	80	100	100	100	100	–	–	–
Nc1c(Cl)c(C(=O)O)nc(Cl)c1C(F)(F)F [Compound 21, 4-Amino-3,6-dichloro-5-trifluoromethylpyridine-2-carboxylic acid]	173	–	–	–	–	–	–	–	–	–	20	70	20	90	80	80	–	–	–

Continued, in another order:

melting point [°C]	Structure (SMILES)	pest or weed control at 125 ppm [1] [%]	pest or weed control at 125 ppm [2] [%]	pest or weed control at 125 ppm [3] [%]	pest or weed control at 280 ppm [4] [%]	pest or weed control at 280 ppm [5] [%]	pest or weed control at 280 ppm [6] [%]	GR80 CIRAR [7] [g/ha]	GR20 TRFRE [8] [g/ha]	GR80 CONAR [9] [g/ha]	pest or weed control at 250 ppm [1] [%]	pest or weed control at 250 ppm [2] [%]	pest or weed control at 250 ppm [3] [%]	pest or weed control at 560 ppm [4] [%]	pest or weed control at 560 ppm [5] [%]	pest or weed control at 560 ppm [6] [%]	pest or weed control at 70 ppm [4] [%]	pest or weed control at 70 ppm [5] [%]	pest or weed control at 70 ppm [6] [%]
240 to 241	NC(=O)c1nc(Cl)cc(N)c1Cl [Compound 11, 4-Amino-3,6-dichloropyridine-2-carboxamide]	85	80	95	–	–	–	–	–	–	–	–	–	85	0	85	–	–	–
96 to 97	CCCCNc1cc(Cl)nc(C(=O)O)c1Cl [Compound 29, 4-N-butylamino-3,6-dichloropyridine-2-carboxylic acid]	–	–	–	–	–	–	–	–	–	90	95	90	100	100	100	–	–	–
153 to 155	O=C(O)c1nc(Cl)cc(N2CCCC2)c1Cl [Compound 36, 4-pyrrolidino-3,6-dichloropyridine-2-carboxylic acid]	40	50	80	–	–	–	–	–	–	–	–	–	80	80	95	–	–	–
